Measured values as given in publication PMC8954769, “Development of an LC-MS/MS Method for ARV-110, a PROTAC Molecule, and Applications to Pharmacokinetic Studies” (Molecules, 2022).

Key:
[1] = design: method as in PMID 34355087; conditions: cited from earlier work
[2] = Stability of ARV-110 QC samples in rat plasma under storage conditions; assay type: in vitro ADME
Method: (§1) The sample stability in rat and mouse plasma was evaluated at low and high QC concentrations. The short-term stability was evaluated at room temperature for 1 h, whereas the long-term stability was determined by assaying samples stored at −20 °C for 4 weeks. […] The freeze–thaw stability was tested by subjecting samples to three freeze–thaw cycles.

[3] = Stability of ARV-110 QC samples in mouse plasma under storage conditions; assay type: in vitro ADME
Method: as §1

[4] = In vitro plasma stability, rat; assay type: in vitro ADME; conditions: 37 °C, incubation 4 h, read-out: T1/2 in plasma
Method: (§2) The stabilities of ARV-110 in the hepatic microsomal fraction and plasma were investigated for three species (human, rat, and mouse). For the microsomal stability study, a reaction mixture containing hepatic microsomes (protein concentration, 0.5 mg/mL) and 1 mM NADPH in phosphate buffer (pH 7.4) was pre-incubated in a thermomixer (5 min, 37 °C, 200 rpm). To initiate the metabolic reaction, 5 μL of ARV-110 in methanol (100 μM) was added to the pre-incubated mixture to obtain a final ARV-110 concentration of 1 μM. The metabolic reactions of buspirone and verapamil were conducted simultaneously as positive controls. For plasma stability measurements, 5 μL of ARV-110 in methanol (100 μM) was added to pre-warmed blank plasma to obtain a final ARV-110 concentration of 1 μM. Procaine was used to control plasma stability. The temperature was maintained and agitation was continued throughout the reaction, and sampling was conducted at predetermined time points (0 (beginning of the reaction), 15; 30; 60; 120; […] min). For the microsomal and plasma stability measurements, the reaction was conducted for 120 and 240 min, respectively. […] The elimination rate constant (ke) was determined as the slope of the linear regression between the log of the percentage of analyte remaining and the incubation time. […]

[5] = In vitro plasma stability, mouse; assay type: in vitro ADME; conditions: 37 °C, incubation 4 h, read-out: T1/2 in plasma
Method: as §2

[6] = In vitro plasma stability, human; assay type: in vitro ADME; conditions: 37 °C, incubation 4 h, read-out: T1/2 in plasma
Method: as §2

[7] = Hepatic microsomal metabolic stability, rat; assay type: in vitro ADME; conditions: 1 mM NADPH, 37 °C
Method: as §2

[8] = Hepatic microsomal metabolic stability, mouse; assay type: in vitro ADME; conditions: 1 mM NADPH, 37 °C
Method: as §2

[9] = Hepatic microsomal metabolic stability, human; assay type: in vitro ADME; conditions: 1 mM NADPH, 37 °C
Method: as §2

[10] = Pharmacokinetic study in rats (IV and PO); assay type: in vivo, Sprague Dawley (SD) rats; conditions: rat; for bioavailability: oral 5 mg/kg vs IV 2 mg/kg
Method: (§3) The validated LC-MS/MS method was applied to determine ARV-110 in pharmacokinetic studies in rats and mice. Animal studies were approved in advance by the Institutional Animal Care and Use Committee of Chungnam National University (202103A-CNU-053; Daejeon, Republic of Korea). Male Sprague Dawley (SD) rats (7 weeks old, 210–251 g) and male ICR mice (6 weeks old, 25–32 g) were purchased from Orient Bio Inc. (Seongnam, Republic of Korea). Their habitat was maintained under a 12 h light–dark cycle at a room temperature of 20–25 °C and a relative humidity of 40–60%. The animals had free access to food and water. Food fasting was started 14 or 4 h prior to drug administration to rats and mice, respectively. After drug administration, the animals were not given food or water for another 4 h.
The drug solution for the pharmacokinetic study in rats was prepared by dissolving ARV-110 in a dimethyl sulfoxide (DMSO)–PEG400–Cremophor EL–saline (5:40:5:50, v/v/v/v). The drug solution was administered to the rats via a single IV bolus into the tail vein at a dose of 2 mg/kg or PO using a gavage needle at a dose of 5 mg/kg. Blood samples (100 μL) were collected from the jugular vein using heparinized syringes at 0.083 (IV only), 0.25, 0.5, 1, 2, 4, 6, 8, 24, and 48 h after ARV-110 administration. Plasma was collected from the blood by centrifugation, and a 20 μL aliquot of plasma was stored at −20 °C until analysis.
(§4) For plasma sample preparation, 20 μL of rat or mouse plasma was added to 20 μL of IS solution (10 μg/mL) and 110 μL of acetonitrile. After vigorous mixing for 10 min, the mixture was centrifuged at 13,500 rpm for 10 min. An aliquot of the supernatant (100 μL) was collected for analysis. Cmax and Tmax were determined directly from the plasma concentration–time profile of each animal. To determine other pharmacokinetic parameters, the experimental data were analyzed using Phoenix® 8.2 software (Certara L.P., Princeton, NJ, USA), as described previously. All data are presented as mean ± SD.

[11] = Pharmacokinetic study in mice (IV and PO); assay type: in vivo, ICR mice; conditions: mouse; for bioavailability: oral 5 mg/kg vs IV 2 mg/kg, after dose normalization
Method: as §3
The drug solution for the pharmacokinetic study in mice was prepared by dissolving ARV-110 in DMSO–PEG400–Cremophor EL–saline (5:30:2.5:62.5, v/v/v/v). The drug solution was administered via an IV bolus into the tail vein at a dose of 2 mg/kg or PO at a dose of 5 mg/kg. Blood samples (50 μL) were alternatively collected from the right retro-orbital plexus at 0.05 (IV only), 0.12, 0.5, 1, 2, 4, 8, 24, and 48 h after ARV-110 administration. Plasma was obtained by centrifuging the blood at 17,600× g for 5 min, and a 20 μL aliquot of plasma was stored at −20 °C until analysis.
as §4

AR = system: AR; design: method as in PMID 31885879, PMID 30271980; conditions: various prostate cancer cell lines; cited from earlier work
resistance models = system: resistance models; design: method as in PMID 31885879, PMID 30271980; conditions: cited from earlier work
[12] = design: method as in doi:10.1200/JCO.2020.38.15_suppl.3500; conditions: preliminary data from a phase I clinical trial; cited from earlier work
[13] = 15 min at room temperature (25 °C), nominal 5 ng/mL
[14] = 15 min at room temperature (25 °C), nominal 2500 ng/mL
[15] = 1 h at room temperature (25 °C), nominal 5 ng/mL
[16] = 1 h at room temperature (25 °C), nominal 2500 ng/mL
[17] = 4 h on ice cold, nominal 5 ng/mL
[18] = 4 h on ice cold, nominal 2500 ng/mL
[19] = Freeze–thaw (3 cycles), nominal 5 ng/mL
[20] = Freeze–thaw (3 cycles), nominal 2500 ng/mL
[21] = Long term (4 weeks at −20 °C), nominal 5 ng/mL
[22] = Long term (4 weeks at −20 °C), nominal 2500 ng/mL
[23] = Processed sample (autosampler, 10 °C, 24 h), nominal 5 ng/mL
[24] = Processed sample (autosampler, 10 °C, 24 h), nominal 2500 ng/mL
[25] = male, Sprague Dawley, in vivo, intravenous, 2 mg/kg
[26] = male, Sprague Dawley, in vivo, oral, 5 mg/kg
[27] = male, ICR, in vivo, intravenous, 2 mg/kg
[28] = male, ICR, in vivo, oral, 5 mg/kg

Nc1cccc2c1C(=O)N(C1CCC(=O)NC1=O)C2=O (stereo not drawn) [pomalidomide]
logP [1]: 0.01 | pKa [1]: 1.89

N#Cc1ccc(O[C@H]2CC[C@H](NC(=O)c3ccc(N4CCC(CN5CCN(c6cc7c(cc6F)C(=O)N(C6CCC(=O)NC6=O)C7=O)CC5)CC4)nn3)CC2)cc1Cl (stereo partly drawn) [ARV-110, bavdegalutamide]
Stability in Rat Plasma (%) [2, 13]: 100.6 ± 7.8% | Stability in Rat Plasma (%) [2, 14]: 96.99 ± 2.27% | Stability in Rat Plasma (%) [2, 15]: 68.73 ± 7.74% | Stability in Rat Plasma (%) [2, 16]: 68.82 ± 1.08% | Stability in Rat Plasma (%) [2, 17]: 92.20 ± 1.38% | Stability in Rat Plasma (%) [2, 18]: 92.21 ± 2.24% | Stability in Rat Plasma (%) [2, 19]: 103.2 ± 3.9% | Stability in Rat Plasma (%) [2, 20]: 101.8 ± 3.4% | Stability in Rat Plasma (%) [2, 21]: 100.6 ± 5.6% | Stability in Rat Plasma (%) [2, 22]: 100.5 ± 5.0% | Stability in Rat Plasma (%) [2, 23]: 99.60 ± 2.91% | Stability in Rat Plasma (%) [2, 24]: 102.6 ± 4.1% | ARV-110 remained in QC samples ([2]; rat plasma, short-term storage, 1 h at 25 °C): approximately 69% | Stability in Mouse Plasma (%) [3, 13]: 99.43 ± 2.93% | Stability in Mouse Plasma (%) [3, 14]: 95.74 ± 5.74% | Stability in Mouse Plasma (%) [3, 15]: 83.70 ± 14.24% | Stability in Mouse Plasma (%) [3, 16]: 78.91 ± 4.93% | Stability in Mouse Plasma (%) [3, 17]: 93.01 ± 5.30% | Stability in Mouse Plasma (%) [3, 18]: 94.09 ± 5.23% | Stability in Mouse Plasma (%) [3, 19]: 104.0 ± 6.1% | Stability in Mouse Plasma (%) [3, 20]: 103.2 ± 4.1% | Stability in Mouse Plasma (%) [3, 21]: 97.97 ± 10.23% | Stability in Mouse Plasma (%) [3, 22]: 97.59 ± 3.78% | Stability in Mouse Plasma (%) [3, 23]: 98.77 ± 3.58% | Stability in Mouse Plasma (%) [3, 24]: 98.62 ± 3.54% | ARV-110 remained in QC samples ([3]; mouse plasma, short-term storage, 1 h at 25 °C): ~80% | half-life at 1 μM [4]: 0.733 h | half-life at 1 μM [5]: 1.55 h | half-life at 1 μM [6]: 0.4 h | half-life at 1 μM ([7]; pH 7.4, rat hepatic microsomes 0.5 mg/mL, read-out: elimination half-life (T1/2) in hepatic microsomes): 36.9 h | drug remaining after incubation for 2 h ([7]; rat hepatic microsomes 0.5 mg/mL, 1 μM): 96.60% | drug remaining after incubation for 2 h ([8]; mouse hepatic microsomes 0.5 mg/mL, 1 μM): 80.95% | half-life at 1 μM ([8]; pH 7.4, mouse hepatic microsomes 0.5 mg/mL, read-out: elimination half-life (T1/2) in hepatic microsomes): 6.92 h | drug remaining after incubation for 2 h ([9]; human hepatic microsomes 0.5 mg/mL, 1 μM): 92.07% | half-life at 1 μM ([9]; pH 7.4, human hepatic microsomes 0.5 mg/mL, read-out: elimination half-life (T1/2) in hepatic microsomes): 16.4 h | AUC(0-inf) [10, 25]: 4860 ± 381 ng·h/mL | AUC(0-t) [10, 25]: 4530 ± 288 ng·h/mL | Cmax [10, 25]: 2520 ± 292 ng/mL | MRT [10, 25]: 10.2 ± 0.48 h | Tmax [10, 25]: 0.083 h | clearance [10, 25]: 6.89 mL/min/kg | half-life [10, 25]: 13.6 ± 1.43 h | Vd ([10]; male, Sprague Dawley, in vivo, intravenous, 2 mg/kg, read-out: Vss): 5.78 ± 0.32 L/kg | AUC(0-inf) [10, 26]: 2890 ± 318 ng·h/mL | AUC(0-t) [10, 26]: 2420 ± 222 ng·h/mL | Cmax [10, 26]: 110 ± 9.2 ng/mL | MRT [10, 26]: 16.4 ± 1.16 h | Tmax [10, 26]: 5.5 ± 1.92 h | half-life [10, 26]: 17.7 ± 3.21 h | bioavailability ([10]; male, Sprague Dawley, in vivo, 5 mg/kg, read-out: Bioavailability): 23.8% | bioavailability [10]: 23.83 ± 2.62% | AUC(0-inf) [11, 27]: 11300 ng·h/mL | AUC(0-t) [11, 27]: 10800 ng·h/mL | Cmax [11, 27]: 1260 ± 99 ng/mL | MRT [11, 27]: 13.1 ± 0.9 h | Tmax [11, 27]: 0.05 h | clearance [11, 27]: 3.02 mL/min/kg | half-life [11, 27]: 11.4 ± 0.51 h | Vd ([11]; male, ICR, in vivo, intravenous, 2 mg/kg, read-out: Vss): 2.37 ± 0.402 L/kg | AUC(0-inf) [11, 28]: 10700 ng·h/mL | AUC(0-t) [11, 28]: 9870 ± 1000 ng·h/mL | Cmax [11, 28]: 612 ± 88.4 ng/mL | MRT [11, 28]: 12.9 ± 0.84 h | Tmax [11, 28]: 4.8 ± 1.79 h | half-life [11, 28]: 14.6 ± 2.48 h | bioavailability ([11]; male, ICR, in vivo, 5 mg/kg, read-out: Bioavailability): 37.9% | bioavailability [11]: 37.89 ± 4.16% | degradation of AR (AR): 95–98% | reduction of tumor growth (resistance models): 70–100% | safety and tolerability in patients [12]: satisfactory safety and tolerability
